Where two headings read alike, the source gives them in different places.
Experiment: first-in-human single ascending dose and food-effect study, plasma pharmacokinetics
Format: in vivo
Settings: for Vd/F: read-out: Vz/F; for Tmax: median, read-out: Tmax
From the text: This was a first-in-human, single center, randomized, double-blind, placebo-controlled, single ascending dose (SAD) study, including a food-effect assessment, in healthy male and female subjects. Up to 44 subjects were included in the study.
The study consisted of 4 sequential cohorts of 8 subjects each (6 active and 2 placebo), randomly assigned to receive a single oral dose of NRL-1049 or matching-placebo under fasting state on Day 1 (See Table 2). In each cohort, a sentinel group of 2 subjects (1 active and 1 placebo) were dosed at least 24 hours prior to enrolling the remaining subjects of the cohort, contingent on the safety profile observed during sentinel dosing, as defined by medical judgment.
Subjects were admitted to the clinical research unit (CRU) on Day −1. On Day 1, following an overnight fast, subjects received a single oral dose of their assigned study treatment. Safety, PK, and exploratory biomarker assessments were performed prior to dosing and at assigned time points during study confinement. Subjects were permitted to leave the CRU following the completion of the 48-hour PK postdose sampling and safety assessments. A safety follow-up phone call was performed on Day 8 (±1 day).
Furthermore, a food-effect assessment was integrated into Cohort 3, in which a single oral 150 mg dose of NRL-1049 or placebo was administered to 12 subjects (10 active and 2 placebo) under fed state in Period 2 (refer to schedule of food-effect Cohort 3 in Table 3). After completion of Period 1 and a washout period of at least 14 days, Cohort 3 subjects repeated the screening procedures to ensure they still met the inclusion and exclusion criteria prior to readmission to the CRU for Period 2. Subjects dosed in Period 1 and who returned for Period 2 (a maximum of 6 active and 2 placebo) were administered the same single oral dose in Period 2 under fed state. In addition, at least 4 new subjects were enrolled in Period 2 only, in order to dose a total of 12 subjects (10 active and 2 placebo), in a 1:1 ratio of male to female. If a subject dosed in Period 1 was unable to return for Period 2, a new subject was enrolled to ensure dosing a total of 12 subjects in Period 2. Newly enrolled subjects only received the study drug in the fed state, and as such were not required to undergo Period 1 activities. There was no sentinel approach in Period 2.
Study drugs (NRL-1049 or placebo) were administered in the morning. The date and time of each dose was recorded. For each subject, all scheduled postdose activities and assessments were performed relative to the time of study drug administration. An oral dose of the assigned formulation was administered to subjects with approximately 240 mL of water at ambient temperature. The capsule(s) were swallowed whole and not chewed or broken. Food and fluid intake other than water were controlled for each confinement period and all subjects. In Cohorts 1, 2, 3 (Period 1), and 4, water was permitted as needed except from 1 hour predose until 1 hour after dosing. In Period 2 of Cohort 3, water was permitted as needed throughout the confinement period. For cohorts under fasting state, subjects were required to fast (abstain from food) for at least 10 hours prior to dosing and for at least 4 hours following dosing. In Period 2 of the food-effect cohort only, following an overnight fast of at least 10 hours, subjects received a standardized high-fat, high-calorie meal 30 minutes prior to study drug administration. An example meal would consist of 2 eggs fried in butter, 2 strips of bacon, 2 slices of toast with butter, 4 ounces of hash brown potatoes, and 8 ounces of whole milk. […] Subjects had to eat the total content of this meal in 30 minutes or less. For all cohorts, a standardized lunch was served at least 4 hours after dosing. A supper, light snack, and other meals were served at appropriate times thereafter, but not until after 9 hours postdose. […]

[1] = 150 mg NRL-1049, fed compared to fasting state
[2] = 25 to 250 mg NRL-1049, fasting conditions

C[C@@H](N)C1CCN(S(=O)(=O)c2cccc3cnccc23)CC1 [NRL-1049]
food effect on mean AUC0-T and AUCinf [1]: greater in the fed state | food effect on mean Cmax [1]: decreased | food effect on mean apparent clearance [1]: greater in the fasting state | food effect on mean apparent volume of distribution [1]: greater in the fed state | food effect on mean elimination half-life [1]: slightly increased | time up to which mean concentrations were quantifiable (25-mg dose, fasting state): up to 2 hours | manner of increase of AUC0-T with dose [2]: greater than dose proportional | manner of increase of AUC0-Tmax with dose [2]: dose proportional | manner of increase of AUCinf with dose [2]: greater than dose proportional | manner of increase of Cmax with dose [2]: dose proportional | time up to which mean concentrations were quantifiable (75-mg dose, fasting state): ≤ 4 h | time up to which mean concentrations were quantifiable (150- and 250-mg doses, fasting state): ≤ 8 h | time up to which mean concentrations were quantifiable (150-mg dose, fed state): up to 12 hours | AUC(0-t) (both sexes, human, plasma, oral, range over dose range 25 to 250 mg NRL-1049, fasting state, read-out: mean AUC0-T): 3.03 to 76.5 ng·h/mL | AUC (both sexes, human, plasma, oral, range over dose range 25 to 250 mg NRL-1049, fasting state, read-out: mean AUC0-Tmax): 1.26 to 8.73 ng·h/mL | AUC(0-inf) (both sexes, human, plasma, oral, range over dose range 25 to 250 mg NRL-1049, fasting state, read-out: mean AUCinf): 3.81 to 78.2 ng·h/mL | Cmax (both sexes, human, plasma, oral, range over dose range 25 to 250 mg NRL-1049, fasting state, read-out: mean Cmax): 3.66 to 58 ng/mL | half-life (both sexes, human, plasma, oral, range over the dose groups 25 to 250 mg NRL-1049, fasting state, read-out: mean elimination half-life): 31.2 to 75.6 min | AUC(0-t) (both sexes, human, plasma, po, 25 mg, plasma NRL-1049, mean, 25 mg NRL-1049 single oral, fasting, Cohort 1, N = 6, read-out: AUC0-T): 3.03 ng·h/mL | AUC (both sexes, human, plasma, po, 25 mg, plasma NRL-1049, mean, 25 mg NRL-1049 single oral, fasting, Cohort 1, N = 6, read-out: AUC0-Tmax): 1.26 ng·h/mL | AUC(0-inf) (both sexes, human, plasma, po, 25 mg, plasma NRL-1049, mean, 25 mg NRL-1049 single oral, fasting, Cohort 1, N = 6, read-out: AUCinf): 3.81 ng·h/mL | Cmax (both sexes, human, plasma, po, 25 mg, plasma NRL-1049, mean, 25 mg NRL-1049 single oral, fasting, Cohort 1, N = 6, read-out: Cmax): 3.66 ng/mL | Vd/F (both sexes, human, plasma, po, 25 mg, plasma NRL-1049, mean, 25 mg NRL-1049 single oral, fasting, Cohort 1, N = 6): 5500 L | Tmax (both sexes, human, plasma, po, 25 mg, plasma NRL-1049, 25 mg NRL-1049 single oral, fasting, Cohort 1, N = 6): 45 min | AUC(0-t) (both sexes, human, plasma, po, 75 mg, plasma NRL-1049, mean, 75 mg NRL-1049 single oral, fasting, Cohort 2, N = 6, read-out: AUC0-T): 13.8 ng·h/mL | AUC (both sexes, human, plasma, po, 75 mg, plasma NRL-1049, mean, 75 mg NRL-1049 single oral, fasting, Cohort 2, N = 6, read-out: AUC0-Tmax): 2.88 ng·h/mL | AUC(0-inf) (both sexes, human, plasma, po, 75 mg, plasma NRL-1049, mean, 75 mg NRL-1049 single oral, fasting, Cohort 2, N = 6, read-out: AUCinf): 15.2 ng·h/mL | Cmax (both sexes, human, plasma, po, 75 mg, plasma NRL-1049, mean, 75 mg NRL-1049 single oral, fasting, Cohort 2, N = 6, read-out: Cmax): 16.9 ng/mL | Vd/F (both sexes, human, plasma, po, 75 mg, plasma NRL-1049, mean, 75 mg NRL-1049 single oral, fasting, Cohort 2, N = 6): 6020 L | Tmax (both sexes, human, plasma, po, 75 mg, plasma NRL-1049, 75 mg NRL-1049 single oral, fasting, Cohort 2, N = 6): 30 min | AUC(0-t) (both sexes, human, plasma, po, 150 mg, plasma NRL-1049, mean, 150 mg NRL-1049 single oral, Fasted, Cohort 3, N = 6, read-out: AUC0-T): 34.8 ng·h/mL

Reference: patent US20250281479A1, “TREATMENT OF CAVERNOUS ANGIOMAS WITH A 4-SUBSTITUTED PIPERIDINE DERIVATIVE” (Neurelis, Inc., priority 2024, published 2025)
